Legend:
[1] = target: Protein cereblon/Macrophage migration inhibitory factor (Homo sapiens, UniProt P14174+Q96SW2); assay: PROTAC activity at E3 ubiquitin ligase/MIF in human A549 cells assessed as induction of MIF degradation; format: cell-based
[2] = target: Protein cereblon/Bromodomain-containing protein 9 (Homo sapiens, UniProt Q9H8M2+Q96SW2); assay: PROTAC activity at CRBN/BRD9 (unknown origin) assessed as induction of BRD9 degradation; format: protein assay
[3] = target: T1, Protein cereblon/Cyclin-dependent kinase 9 (Homo sapiens) (UniProt P50750+Q96SW2); assay: PROTAC activity at E3 ubiquitin ligase/CDK9 in human MOLT-4 cells assessed as induction of CDK9 degradation at 250 nM by immunoblot analysis; format: cell-based
[4] = target: von Hippel-Lindau disease tumor suppressor/Haloalkane dehalogenase (Rhodococcus sp) (UniProt P40337+P0A3G3); assay: PROTAC activity at VHL/HaloTag7-GFP fusion protein (unknown origin) assessed as induction of fusion protein degradation relative to control
[5] = target: von Hippel-Lindau disease tumor suppressor/Haloalkane dehalogenase (Rhodococcus sp, UniProt P40337+P0A3G3); assay: PROTAC activity at VHL/HaloTag7-GFP fusion protein (unknown origin) assessed as induction of fusion protein degradation
[6] = Antiproliferative activity against human TNBC cells assessed as inhibition of cell growth; format: functional, Breast carcinoma cell
[7] = target: T1, Protein cereblon/Cyclin-dependent kinase 9 (Homo sapiens); assay: PROTAC activity at E3 ubiquitin ligase/CDK9 in human HCT-116 cells assessed as induction of CDK9 degradation at 20 uM measured after 6 hrs by western blot analysis; format: cell-based
[8] = Induction of AR degradation in castrated mouse model xenografted with human VCaP cells at 1 mg/kg; format: functional
[9] = system: MCF7; assay: Cytotoxicity against human MCF7 cells assessed as inhibition of cell proliferation measured after 72 hrs by MTT assay; format: functional, cell-based; conditions: MCF7, 72 h

**Q.** With `O=C1CCC(N2C(=O)c3cccc(NCCCCCCCC(=O)Nc4ccc(N5Cc6ccc(O)cc6OC5=O)cc4)c3C2=O)C(=O)N1` (centres undefined) as the compound, how does the DC50 [1] read?
**A.** 100 nM

**Q.** Which DC50 [2] does the source give for `COc1cc(-c2cn(C)c(=O)c(C)c2C)cc(OC)c1CN1CC[C@H](N2CCN(c3ccc(N[C@H]4CCC(=O)NC4=O)cc3F)CC2)C(F)(F)C1` [SENDEGOBRESIB] here?
**A.** 2.7 nM

**Q.** With `CC(C)(C)c1cnc(CSc2cnc(NC(=O)C3CCN(CC(=O)NCCOCCOCCOCCNc4cccc5c4C(=O)N(C4CCC(=O)NC4=O)C5=O)CC3)s2)o1` (centres undefined) as the compound, how does the Activity [3] read?
**A.** 99%

**Q.** Which Activity [4] does the source give for `Cc1ncsc1-c1ccc(CNC(=O)[C@@H]2C[C@@H](O)CN2C(=O)[C@H](C(C)C)N2Cc3ccccc3C2=O)c(OCCOCCOCCOCCCCCCCl)c1` here?
**A.** 90%

**Q.** What about the DC50 [5] of the same compound?
**A.** 19 nM

**Q.** For `Nc1c(C(=O)Nc2ccc(F)cc2)sc2nc(-c3cccs3)cc(C(F)(F)F)c12`, which “inhibition (INH)” value [6] is on record?
**A.** 47.8%

**Q.** Which Activity [7] does the source give for `O=C1CCC(N2C(=O)c3cccc(OCCCCCOc4ccc(CC(=O)Nc5cc(C6CCC6)[nH]n5)cc4)c3C2=O)C(=O)N1` (centres undefined) here?
**A.** 65%

**Q.** With `N#Cc1ccc(O[C@H]2CC[C@H](NC(=O)c3ccc(N4CCC(CN5CCN(c6cc7c(cc6F)C(=O)N(C6CCC(=O)NC6=O)C7=O)CC5)CC4)nn3)CC2)cc1Cl` (some centres undefined) [BAVDEGALUTAMIDE] as the compound, how does the Activity [8] read?
**A.** 90%

**Q.** For `Nc1cccc2c1C(=O)N(C1CCC(=O)NC1=O)C2=O` (centres undefined) [POMALIDOMIDE], which IC50 [9] is on record?
**A.** 17000 nM
